In US9353081B2, “Bicyclic dihydroquinoline-2-one derivatives” (Hoffmann-La Roche Inc., priority 2011, dated 2016) one finds EC50 data, which are given here for 21 molecules.

For orientation: pEC50 means −log10 of the EC50, conventionally taken in molar units.

pEC50: −log10 of the molar value.

The target in one assay is human CYP11B2 (Homo sapiens (Human), UniProt P19099). The assay can be described thus: G-402 cellular enzyme assay, human CYP11B2 (aldosterone release, HTRF). The conditions noted are these: G-402 cells expressing human CYP11B2; 1 μM Deoxycorticosterone. The format is cell-based. An excerpt: (§1) Specifically we developed stable G-402 cells expressing ectopically human CYP11B1, human CYP11B2, human CYP11A1, cynomolgus CYP11B1 or cynomolgus CYP11B2 enzyme activity.
Sequence of human CYP11B2 (P19099 25-503): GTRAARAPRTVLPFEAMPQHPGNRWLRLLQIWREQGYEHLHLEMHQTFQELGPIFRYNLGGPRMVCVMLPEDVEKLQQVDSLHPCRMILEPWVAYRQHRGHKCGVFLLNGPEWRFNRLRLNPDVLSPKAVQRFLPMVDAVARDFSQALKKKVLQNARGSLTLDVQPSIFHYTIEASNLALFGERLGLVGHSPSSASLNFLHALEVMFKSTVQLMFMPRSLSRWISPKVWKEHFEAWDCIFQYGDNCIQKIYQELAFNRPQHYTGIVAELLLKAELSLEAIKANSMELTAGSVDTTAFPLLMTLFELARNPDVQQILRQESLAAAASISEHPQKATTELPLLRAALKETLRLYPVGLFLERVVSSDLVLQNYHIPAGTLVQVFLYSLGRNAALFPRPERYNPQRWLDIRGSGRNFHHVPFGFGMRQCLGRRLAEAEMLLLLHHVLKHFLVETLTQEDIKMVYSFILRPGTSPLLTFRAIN
(§2) The expression plasmids contains the ORF for either human/cyno CYP11B1 or CYP11B2 under the control of a suitable promoter (CMV-promoter) and a suitable resistance marker (neomycin). Using standard techniques the expression plasmid is transfected into G-402 cells and these cells are then selected for expressing the given resistance markers. Individual cell-clones are then selected and assessed for displaying the desired enzymatic activity using 11-Deoxycorticosterone (Cyp11B2) or 11-Deoxycortisol (Cyp11B1) as a substrate.
(§3) For assaying enzymatic activity, cells were plated onto 96 well plates and incubated for 16 h. An aliquot of the supernatant is then transferred and analyzed for the concentration of the expected product (Aldosterone for CYP11B2; Cortisol for CYP11B1). The concentrations of these steroids can be determined using HTRF assays from CisBio analyzing either Aldosterone or Cortisol.
(§4) Inhibition of the release of produced steroids can be used as a measure of the respective enzyme inhibition by test compounds added during the cellular enzyme assay. The dose dependent inhibition of enzymatic activity by a compound is calculated by means of plotting added inhibitor concentrations x-axes) vs. measured steroid/product level (y-axes). The inhibition is then calculated by fitting the following 4-parameter sigmoidal function (Morgan-Mercer-Flodin (MMF) model) to the raw data points using the least squares method:
(§5) [formula] wherein, A is the maximum y value, B is the EC50 factor determined using XLFit, C is the minimum y value and D is the slope value.
(§6) EC50 values for compounds claimed herein were tested with the G402-based assay system described. Cyp11B2 enzyme activity was tested in presence of 1 μM Deoxycorticosterone and variable amounts of inhibitors; Cyp11B1 enzyme activity was tested in presence of 1 μM Deoxycortisol and variable amounts of inhibitors.
On the technique in general: Time-resolved FRET reads energy transfer from a long-lived donor to a nearby acceptor.

For the next assay, the target named is human CYP11B1 (Homo sapiens (Human), UniProt P15538). Briefly: G-402 cellular enzyme assay, human CYP11B1 (cortisol release, HTRF). The format is cell-based. As to conditions: G-402 cells expressing human CYP11B1; 1 μM Deoxycortisol.
Sequence of human CYP11B1 (P15538 25-503): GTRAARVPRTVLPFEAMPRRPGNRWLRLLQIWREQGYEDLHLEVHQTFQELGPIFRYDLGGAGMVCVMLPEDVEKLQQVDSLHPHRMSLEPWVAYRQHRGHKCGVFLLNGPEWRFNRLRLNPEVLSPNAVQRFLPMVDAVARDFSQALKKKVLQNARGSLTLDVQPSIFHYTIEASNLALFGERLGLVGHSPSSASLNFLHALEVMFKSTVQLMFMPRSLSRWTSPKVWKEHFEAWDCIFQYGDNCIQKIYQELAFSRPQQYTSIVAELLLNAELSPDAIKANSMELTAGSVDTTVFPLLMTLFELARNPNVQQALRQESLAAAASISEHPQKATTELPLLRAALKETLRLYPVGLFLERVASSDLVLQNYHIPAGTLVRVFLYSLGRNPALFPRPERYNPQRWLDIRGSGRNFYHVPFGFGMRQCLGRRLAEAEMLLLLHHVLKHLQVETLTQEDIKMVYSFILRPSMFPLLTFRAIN
From the text: as §1, §2, §3, §4, §5, §6

In the case of `CCC(=O)N[C@@H]1c2cncc(-c3ccc4c(c3)CCC(=O)N4C)c2CC[C@@H]1C` (single isomer, unassigned) [Example 46, (−)-N-[(7S,8S or 7R,8R)-7-Methyl-4-(1-methyl-2-oxo-1,2,3,4-tetrahydro-quinolin-6-yl)-5,6,7,8-tetrahydro-isoquinolin-8-yl]-propionamide], the results for the pEC50 on human CYP11B2 and at human CYP11B1 were 6.33 and 4.71, respectively.
In the case of `CCC(=O)N[C@H]1c2cncc(-c3cc4c(cc3F)N(C)C(=O)CC4)c2CC[C@H]1C` (single isomer, unassigned) [Example 48, (+)-N-[(7R,8R or 7S,8S)-4-(7-Fluoro-1-methyl-2-oxo-1,2,3,4-tetrahydro-quinolin-6-yl)-7-methyl-5,6,7,8-tetrahydro-isoquinolin-8-yl]-propionamide], the pEC50 at human CYP11B2 is 7.58; at human CYP11B1, 5.54.
Consider `CCC(=O)N[C@H]1c2cncc(-c3ccc4c(c3)CCC(=O)N4C)c2CC[C@H]1C` (single isomer, unassigned) [Example 49, (+)-N-[(7R,8R or 7S,8S)-7-Methyl-4-(1-methyl-2-oxo-1,2,3,4-tetrahydro-quinolin-6-yl)-5,6,7,8-tetrahydro-isoquinolin-8-yl]-propionamide], for which the negative logarithm of the EC50 (pEC50) was 7.35 at human CYP11B2 and 5.40 at human CYP11B1.
Consider `CCC(=O)N[C@@H]1c2cncc(-c3ccc4c(c3)CCC(=O)N4C)c2CC[C@@H]1F` (single isomer, unassigned) [Example 51, (−)-N-[(7S,8R or 7R,8S)-7-Fluoro-4-(1-methyl-2-oxo-1,2,3,4-tetrahydro-quinolin-6-yl)-5,6,7,8-tetrahydro-isoquinolin-8-yl]-propionamide], for which the pEC50 at human CYP11B2 is 5.83; at human CYP11B1, 4.49.
Turning to `CCC(=O)N[C@H]1c2cncc(-c3ccc4c(c3)CCC(=O)N4C)c2CC[C@@H]1F` (single isomer, unassigned) [Example 52, (+)-N-[(7S,8S or 7R,8R)-7-Fluoro-4-(1-methyl-2-oxo-1,2,3,4-tetrahydro-quinolin-6-yl)-5,6,7,8-tetrahydro-isoquinolin-8-yl]-propionamide], the pEC50 on human CYP11B2 was 7.59; on human CYP11B1 it was 5.80.
In the same order, the values of `CCC(=O)N[C@H]1c2cncc(-c3ccc4c(c3)CCC(=O)N4C)c2CC[C@H]1F` (single isomer, unassigned) [Example 53, (+)-N-[(7R,8S or 7S,8R)-7-Fluoro-4-(1-methyl-2-oxo-1,2,3,4-tetrahydro-quinolin-6-yl)-5,6,7,8-tetrahydro-isoquinolin-8-yl]-propionamide] are 6.91 and 5.45.
Turning to `CCC(=O)N[C@H]1c2cncc(-c3cc4c(cc3F)N(C)C(=O)CC4)c2CC[C@@H]1F` (single isomer, unassigned) [Example 54, (+)-N-[(7S,8S or 7R,8R)-7-Fluoro-4-(7-fluoro-1-methyl-2-oxo-1,2,3,4-tetrahydro-quinolin-6-yl)-5,6,7,8-tetrahydro-isoquinolin-8-yl]-propionamide], the pEC50 at human CYP11B2 was 7.41; at human CYP11B1, 5.62.
In the same order, the values of `CCC(=O)N[C@H]1c2cncc(-c3cc4c(cc3F)N(C)C(=O)CC4)c2CC[C@H]1F` (single isomer, unassigned) [Example 55, (+)-N-[(7R,8S or 7S,8R)-7-Fluoro-4-(7-fluoro-1-methyl-2-oxo-1,2,3,4-tetrahydro-quinolin-6-yl)-5,6,7,8-tetrahydro-isoquinolin-8-yl]-propionamide] are 6.80 and 5.56.
Take `CCC(=O)N[C@@H]1c2cncc(-c3cc4c(cc3F)N(C)C(=O)CC4)c2CC[C@H]1F` (single isomer, unassigned) [Example 56, (−)-N-[(7R,8R or 7S,8S)-7-Fluoro-4-(7-fluoro-1-methyl-2-oxo-1,2,3,4-tetrahydro-quinolin-6-yl)-5,6,7,8-tetrahydro-isoquinolin-8-yl]-propionamide]: the pEC50 at human CYP11B2 was 5.56; on human CYP11B1 it was 4.83.
As for `CCC(=O)N[C@@H]1c2cncc(-c3cc4c(cc3F)N(C)C(=O)CC4)c2CC[C@@H]1F` (single isomer, unassigned) [Example 57, (−)-N-[(7S,8R or 7R,8S)-7-Fluoro-4-(7-fluoro-1-methyl-2-oxo-1,2,3,4-tetrahydro-quinolin-6-yl)-5,6,7,8-tetrahydro-isoquinolin-8-yl]-propionamide], the pEC50 at human CYP11B2 is 6.05; on human CYP11B1 it was 4.69.
Turning to `CN1C(=O)CCc2cc(-c3cncc4c3CCCC4O)ccc21` (single isomer, unassigned) [Example 68, (S or R)-6-(8-Hydroxy-5,6,7,8-tetrahydro-isoquinolin-4-yl)-1-methyl-3,4-dihydroquinolin-2(1H)-one], the pEC50 was 7.11 on human CYP11B2 and 5.79 at human CYP11B1.
As to `CN1C(=O)CCc2cc(-c3cncc4c3CCCC4O)ccc21` (single isomer, unassigned) [Example 69, (R or S)-6-(8-Hydroxy-5,6,7,8-tetrahydro-isoquinolin-4-yl)-1-methyl-3,4-dihydroquinolin-2(1H)-one], the pEC50 is 8.70 at human CYP11B2 and 7.27 at human CYP11B1.
Turning to `CCC(=O)NC1CCCc2c(-c3ccc4c(c3)CCC(=O)N4C)cncc21` (single isomer, unassigned; (+)) [Example 3, (+)-(S or R)—N-(4-(1-Methyl-2-oxo-1,2,3,4-tetrahydroquinolin-6-yl)-5,6,7,8-tetrahydroisoquinolin-8-yl)propionamide], the pEC50 at human CYP11B2 was 7.85; at human CYP11B1 it was 6.01.
On to `CCS(=O)(=O)NC1CCCc2c(-c3ccc4c(c3)CCC(=O)N4C)cncc21` (single isomer, unassigned; (+)) [Example 6, (+)-(S or R)—N-(4-(1-Methyl-2-oxo-1,2,3,4-tetrahydroquinolin-6-yl)-5,6,7,8-tetrahydroisoquinolin-8-yl)ethanesulfonamide], for which the negative-log EC50 (pEC50) is 7.32 at human CYP11B2 and 5.76 at human CYP11B1.
For `CCC(=O)NC1CCc2c(-c3ccc4c(c3)CCC(=O)N4C)cncc21` (single isomer, unassigned; (+)) [Example 9, (+)-(S or R)—N-(4-(1-Methyl-2-oxo-1,2,3,4-tetrahydroquinolin-6-yl)-6,7-dihydro-5H-cyclopenta[c]pyridin-7-yl)propionamide], in that order: 7.89 and 6.24.
In the case of `C[C@@H](O)C(=O)NC1CCCc2c(-c3ccc4c(c3)CCC(=O)N4C)cncc21` (single isomer, unassigned; (+)) [Example 18, (+)-(2R)-2-Hydroxy-N-((4R or 4S)-4-(1-methyl-2-oxo-1,2,3,4-tetrahydroquinolin-6-yl)-5,6,7,8-tetrahydroisoquinolin-8-yl)propanamide], the pEC50 at human CYP11B2 was 7.55; at human CYP11B1, 5.83.
For the molecule `C[C@H](O)C(=O)NC1CCCc2c(-c3ccc4c(c3)CCC(=O)N4C)cncc21` (single isomer, unassigned; (+)) [Example 21, (+)-(2S)-2-hydroxy-N-((4R or 4S)-4-(1-methyl-2-oxo-1,2,3,4-tetrahydroquinolin-6-yl)-5,6,7,8-tetrahydroisoquinolin-8-yl)propanamide], the figures for the negative-log EC50 (pEC50) on human CYP11B2 and at human CYP11B1 were 7.55 and 6.22, respectively.
Consider `CCC(=O)NC1CCc2c(-c3cc4c(cc3F)N(C)C(=O)CC4)cncc21` (single isomer, unassigned; (+)) [Example 24, (+)-(R or S)—N-(4-(7-Fluoro-1-methyl-2-oxo-1,2,3,4-tetrahydroquinolin-6-yl)-6,7-dihydro-5H-cyclopenta[c]pyridin-7-yl)propionamide], for which the pEC50 at human CYP11B2 is 8.42; on human CYP11B1, 6.33.
`CCS(=O)(=O)NC1CCc2c(-c3cc4c(cc3F)N(C)C(=O)CC4)cncc21` (single isomer, unassigned; (+)) [Example 27, (+)-(R or S)—N-(4-(7-Fluoro-1-methyl-2-oxo-1,2,3,4-tetrahydroquinolin-6-yl)-6,7-dihydro-5H-cyclopenta[c]pyridin-7-yl)ethanesulfonamide]: the negative logarithm of the EC50 (pEC50) was 7.95 on human CYP11B2 and 5.72 at human CYP11B1.
In the case of `CCC(=O)NC1CCCc2c(-c3cc4c(cc3F)N(C)C(=O)CC4)cncc21` (single isomer, unassigned; (+)) [Example 30, (+)-(R or S)—N-[4-(7-fluoro-1-methyl-2-oxo-1,2,3,4-tetrahydro-quinolin-6-yl)-5,6,7,8-tetrahydro-isoquinolin-8-yl]-propionamide], the pEC50 on human CYP11B2 is 7.52; on human CYP11B1 it was 5.43.
As for `CCS(=O)(=O)NC1CCCc2c(-c3cc4c(cc3F)N(C)C(=O)CC4)cncc21` (single isomer, unassigned; (+)) [Example 32, (+)-(R or S)-Ethanesulfonic acid [4-(7-fluoro-1-methyl-2-oxo-1,2,3,4-tetrahydro-quinolin-6-yl)-5,6,7,8-tetrahydro-isoquinolin-8-yl]-amide], the results for the pEC50 at human CYP11B2 and on human CYP11B1 were 7.11 and 5.37, respectively.
